Data on nine compounds can be found in patent publication US20070254863A1 (priority 2006, published 2007).

Molecules are shown by their SMILES. Read-outs that look alike come from different tables or passages of the source.

The subject of assay [1] is rat perifused pancreatic islets. Kind of assay: KATP opening effects through insulin secretion in rat perifused pancreatic islets. In kind it is cell-based. As to conditions: 11 mM glucose; for % Inhibition 0-30 (insulin secretion): 0-30 minutes; for % Inhibition 30-60 (insulin secretion): 30-60 minutes.
Method: Determination of the KATP Opening Effects of Compounds Through Insulin Secretion in Rat Perifused Pancreatic Islets
The animals were maintained on a 12 h light-dark cycle (lights on 06.00-18.00 h) with free access to standard rodent diet (B&K Universal Ltd standard rat and mouse diet (BK 001P), Beekay Feeds, B&K Universal Ltd, Hull, East Riding of Yorkshire) and tap water. The rats were conditioned to this environment for at least one week before experimentation.
Experimental procedures: After the rats were sacrificed, the branch of the bile duct leading to the liver and the duodenal end of the duct in the pancreas were clamped and the pancreas distended by injection of ice-cold 0.9 mg/ml collagenase solution into the bile duct. […] Following incubation, 10 ml of cold buffer was added and the suspension shaken vigorously by hand for 1 min. The islets were allowed to settle for 5 min on ice and washed three times using ice-cold buffer. Well-formed and good-sized islets from three rats were hand-picked (under a low power microscope) and pooled and a final selection of islet transferred to the perifusion apparatus.
Two experiments were performed in parallel in two identical, independent sets of perifusion apparatus each consisting of sufficient number of chambers. Each chamber was loaded with 20 hand-picked islets. Islets were perifused for an initial 30 min period in media containing 4 mM glucose. Perifusate was then collected at 2 min intervals for the remainder of the experiment. […] Perifusate fractions were stored at −75° C. until required for insulin assay. Insulin content of fractions were assayed using a 96-well ELISA assay (Mercodia). Initial insulin assays were performed in triplicate on three pooled fractions from each chamber.
Data were initially expressed as a simple mean of the three experiments for insulin secretion (pg/islet/min) and multiple t-tests (against the corresponding vehicle time period) used to determine potential significant effects of treatments. Alternatively, data were also calculated as a % vehicle effect for each experimental day. This latter approach was deemed to be the more powerful analysis as it corrected for the day to day variation in insulin release from the islets.
The target of assay [2] is human cannabinoid CB2 receptor (Homo sapiens, UniProt P34972). Kind of assay: biochemical. Type of assay: binding. The procedure:
3. In Vitro Binding Affinity of the Test Compounds to CB2 Receptors
After incubation of a freshly prepared cell membrane preparation with the [^3H]-ligand, with or without the addition of the compounds described herein, separation of bound and free ligand is performed by filtration over glass-fiber filters. Radioactivity on the filter is measured by liquid scintillation counting.

In a further assay the target is rat SUR2A (Rattus norvegicus, UniProt Q63563). Put plainly: In vitro binding affinity to rodent KATP channels: SUR2A ([3H]P1075 / [3H]glibenclamide displacement, COS cell membranes). Put shortly: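 COS-cell membranes transiently expressing rat SUR2A incubated 1 h at room temperature in 50 mM Tris pH 7.4, ~0.7 mM free Mg2+, with 3 nM [3H]P1075 (wild type) or [3H]glibenclamide (SUR2AY1205S); filtration read-out. Ki from IC50, reported as pKi; 9-15 concentrations per curve.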
rat SUR2A, sequence (Q63563 whole entry): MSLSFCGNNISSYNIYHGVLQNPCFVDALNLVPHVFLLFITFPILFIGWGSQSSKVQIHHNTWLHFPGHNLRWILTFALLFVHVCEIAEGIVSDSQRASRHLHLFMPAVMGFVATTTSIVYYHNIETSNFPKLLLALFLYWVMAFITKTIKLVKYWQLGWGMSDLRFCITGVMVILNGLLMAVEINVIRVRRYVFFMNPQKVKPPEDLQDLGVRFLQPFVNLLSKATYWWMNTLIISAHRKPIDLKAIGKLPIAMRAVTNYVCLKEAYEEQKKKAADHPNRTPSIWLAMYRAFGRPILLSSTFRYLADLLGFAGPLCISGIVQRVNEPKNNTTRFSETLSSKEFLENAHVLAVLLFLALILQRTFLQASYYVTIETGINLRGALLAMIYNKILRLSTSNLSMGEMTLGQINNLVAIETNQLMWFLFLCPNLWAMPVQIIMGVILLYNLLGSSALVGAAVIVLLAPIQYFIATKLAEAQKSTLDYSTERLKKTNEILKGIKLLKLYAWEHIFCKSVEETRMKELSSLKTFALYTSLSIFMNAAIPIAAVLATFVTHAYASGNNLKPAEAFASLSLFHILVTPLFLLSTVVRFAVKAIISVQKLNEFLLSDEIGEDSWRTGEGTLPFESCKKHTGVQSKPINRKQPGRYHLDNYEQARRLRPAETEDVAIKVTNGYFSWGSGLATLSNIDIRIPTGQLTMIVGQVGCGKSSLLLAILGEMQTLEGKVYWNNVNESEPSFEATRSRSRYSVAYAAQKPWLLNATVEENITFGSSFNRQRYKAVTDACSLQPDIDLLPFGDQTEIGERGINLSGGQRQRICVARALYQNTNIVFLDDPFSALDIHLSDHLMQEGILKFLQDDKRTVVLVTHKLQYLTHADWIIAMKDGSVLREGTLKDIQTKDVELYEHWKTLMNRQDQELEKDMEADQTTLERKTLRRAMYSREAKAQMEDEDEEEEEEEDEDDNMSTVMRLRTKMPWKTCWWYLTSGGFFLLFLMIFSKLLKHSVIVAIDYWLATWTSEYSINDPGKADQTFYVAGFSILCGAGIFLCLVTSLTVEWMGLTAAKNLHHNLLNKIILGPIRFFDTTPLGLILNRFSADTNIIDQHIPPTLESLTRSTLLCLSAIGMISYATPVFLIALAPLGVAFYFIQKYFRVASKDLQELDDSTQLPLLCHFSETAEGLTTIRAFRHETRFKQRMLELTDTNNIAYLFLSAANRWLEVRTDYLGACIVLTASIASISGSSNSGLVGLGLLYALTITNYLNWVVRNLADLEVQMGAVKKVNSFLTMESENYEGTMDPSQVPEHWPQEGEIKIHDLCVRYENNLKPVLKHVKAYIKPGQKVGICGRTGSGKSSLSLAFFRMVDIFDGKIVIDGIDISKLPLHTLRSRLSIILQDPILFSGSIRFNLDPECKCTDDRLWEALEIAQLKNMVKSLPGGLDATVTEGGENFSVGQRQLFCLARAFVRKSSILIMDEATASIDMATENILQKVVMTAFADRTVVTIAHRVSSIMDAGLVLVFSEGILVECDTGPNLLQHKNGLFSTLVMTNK

In another assay the target is T1, hamster SUR1 (Cricetus cricetus, UniProt Q09427).
T1 construct: expressed in transfected cells; host or cells: COS-1 cells, transient (pcDNA vector)
T1 sequence (Q09427 whole entry): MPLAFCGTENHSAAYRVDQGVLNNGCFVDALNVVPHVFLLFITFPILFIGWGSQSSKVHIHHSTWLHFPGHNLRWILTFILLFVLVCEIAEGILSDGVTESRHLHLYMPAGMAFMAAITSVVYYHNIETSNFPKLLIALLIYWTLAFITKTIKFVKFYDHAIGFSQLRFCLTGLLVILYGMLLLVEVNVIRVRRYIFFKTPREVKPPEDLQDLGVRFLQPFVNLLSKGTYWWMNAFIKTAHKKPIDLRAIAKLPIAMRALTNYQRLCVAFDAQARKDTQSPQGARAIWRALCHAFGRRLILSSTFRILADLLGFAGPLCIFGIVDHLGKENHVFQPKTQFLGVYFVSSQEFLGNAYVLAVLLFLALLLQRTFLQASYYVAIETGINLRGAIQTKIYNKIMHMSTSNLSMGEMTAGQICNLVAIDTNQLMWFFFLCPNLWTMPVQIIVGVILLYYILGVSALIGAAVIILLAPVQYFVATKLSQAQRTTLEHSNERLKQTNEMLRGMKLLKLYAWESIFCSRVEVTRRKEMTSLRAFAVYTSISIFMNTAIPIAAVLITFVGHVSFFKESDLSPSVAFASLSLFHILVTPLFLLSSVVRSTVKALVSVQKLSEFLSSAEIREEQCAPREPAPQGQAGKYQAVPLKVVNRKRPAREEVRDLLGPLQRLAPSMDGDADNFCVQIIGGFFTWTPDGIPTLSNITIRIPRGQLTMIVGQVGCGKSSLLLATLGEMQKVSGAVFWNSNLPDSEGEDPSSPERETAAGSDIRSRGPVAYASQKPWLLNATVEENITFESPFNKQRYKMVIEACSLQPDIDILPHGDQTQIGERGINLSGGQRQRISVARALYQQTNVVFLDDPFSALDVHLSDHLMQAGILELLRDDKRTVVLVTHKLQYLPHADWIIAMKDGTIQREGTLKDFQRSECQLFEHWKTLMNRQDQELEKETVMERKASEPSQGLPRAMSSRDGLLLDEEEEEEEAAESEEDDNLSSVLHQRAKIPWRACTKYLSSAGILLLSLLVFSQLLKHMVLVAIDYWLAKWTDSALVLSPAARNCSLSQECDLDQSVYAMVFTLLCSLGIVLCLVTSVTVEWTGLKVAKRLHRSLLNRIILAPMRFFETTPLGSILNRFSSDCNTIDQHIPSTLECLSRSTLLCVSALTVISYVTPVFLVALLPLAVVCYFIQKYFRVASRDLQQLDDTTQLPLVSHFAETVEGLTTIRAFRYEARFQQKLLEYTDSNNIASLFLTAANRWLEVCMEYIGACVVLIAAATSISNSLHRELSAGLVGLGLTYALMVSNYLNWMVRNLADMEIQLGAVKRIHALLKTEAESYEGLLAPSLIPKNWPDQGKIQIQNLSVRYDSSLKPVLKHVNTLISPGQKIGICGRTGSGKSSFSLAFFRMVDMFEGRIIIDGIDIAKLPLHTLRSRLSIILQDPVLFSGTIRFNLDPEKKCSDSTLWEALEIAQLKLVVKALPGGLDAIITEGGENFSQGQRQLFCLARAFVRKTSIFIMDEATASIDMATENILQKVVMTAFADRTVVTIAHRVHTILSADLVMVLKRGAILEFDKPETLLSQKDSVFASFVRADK
Kind of assay: In vitro binding affinity to rodent KATP channels: SUR1 ([3H]glibenclamide displacement, COS cell membranes). The following applies: hamster SUR1 in COS cell membranes; read-out: Affinity to SUR 1 (converted).

[3] abbreviates: cloned human CB2 receptor expressed in CHO cells, read-out: Affinity to CB2 (converted).

For orientation: pKi means the Ki on a negative log10 scale, so that one unit is a factor of ten. Read a high pKi as a small Ki.

human cannabinoid CB2 receptor, sequence (P34972 whole entry): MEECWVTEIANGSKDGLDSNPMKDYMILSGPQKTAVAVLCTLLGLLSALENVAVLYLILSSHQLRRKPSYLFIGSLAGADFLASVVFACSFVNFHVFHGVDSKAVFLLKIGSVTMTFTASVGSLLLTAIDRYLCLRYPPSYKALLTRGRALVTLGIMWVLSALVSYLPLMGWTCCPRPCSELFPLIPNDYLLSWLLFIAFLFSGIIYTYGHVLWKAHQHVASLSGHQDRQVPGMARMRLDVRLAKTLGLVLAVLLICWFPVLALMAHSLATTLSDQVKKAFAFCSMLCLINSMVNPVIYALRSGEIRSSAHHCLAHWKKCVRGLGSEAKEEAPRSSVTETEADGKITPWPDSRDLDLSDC

`CCc1c(C(=O)NN2CCCCC2)nc(-c2ccccc2Cl)n1-c1ccc(Cl)cc1` [1-(4-Chloro-phenyl)-2-(2-chloro-phenyl)-5-ethyl-1H-imidazole-4-carboxylic acid piperidin-1-ylamide, reference compound]: in assay [1], the “% Inhibition 0-30 (insulin secretion)” value was 59% and the “% Inhibition 30-60 (insulin secretion)” value turned out to be 45%. The same compound showed a Ki in assay [2] of 1 µM. At rat SUR2A, this compound gave a pKi of 4.8.
Consider `CSc1c(C(=O)NN2CCCCC2)nc(-c2ccccc2Cl)n1-c1ccc(Cl)cc1` [1-(4-Chloro-phenyl)-2-(2-chloro-phenyl)-5-methylsulfanyl-1H-imidazole-4-carboxylic acid piperidin-1-ylamide], for which, in assay [1], the “% Inhibition 0-30 (insulin secretion)” value was 56% and the “% Inhibition 30-60 (insulin secretion)” value worked out at 36%. The Ki in assay [2] (setting [3]) was 6.31 µM. Besides, the Ki at hamster SUR1 was 0.00631 µM.
As to `CN1CCCCC1Cn1cc(C(=O)c2cc([N+](=O)[O-])ccc2I)c2ccccc21` (stereo not shown) [AM-1241, (2-Iodo-5-nitro-phenyl)-[1-(1-methyl-piperidin-2-ylmethyl)-1H-indol-3-yl]-methanone, reference compound], the “% Inhibition 0-30 (insulin secretion)” value in assay [1] is listed as 97%. Also, the “% Inhibition 30-60 (insulin secretion)” value in assay [1] is on record as 74%. The Ki in assay [2] (setting [3]) was 0.0158 µM; at hamster SUR1, 3.98 µM.
On to `CN/C(=N\S(=O)(=O)c1ccc(C(F)(F)F)cc1)N1CC(c2cccnc2)C(c2ccc(Cl)cc2)=N1` (stereo not shown) [N-([3-(4-Chloro-phenyl)-4-pyridin-3-yl-4,5-dihydro-pyrazol-1-yl]-methylamino-methylene}-4-trifluoromethyl-benzenesulfonamide], for which, in assay [1], the “% Inhibition 0-30 (insulin secretion)” value is recorded as 58% and the “% Inhibition 30-60 (insulin secretion)” value came out at 31%. In addition, the pKi on rat SUR2A stood at 4.9. The Ki on hamster SUR1 is 0.501 µM.
`CN/C(=N\S(=O)(=O)N(C)C)N1CC(c2cccc(F)c2)C(c2ccc(Cl)cc2)=N1` (stereo not shown) [N-{[3-(4-Chloro-phenyl)-4-(3-fluoro-phenyl)-4,5-dihydro-pyrazol-1-yl]-methylamino-methylene}-N,N-dimethyl-sulfonamide]: in assay [1], the “% Inhibition 0-30 (insulin secretion)” value is on record as 72% and the “% Inhibition 30-60 (insulin secretion)” value was 77%. This compound yielded a pKi on rat SUR2A of 5.3. For the same compound, the Ki on hamster SUR1 was 0.1 µM.
`CNC(=NS(=O)(=O)N1CCCCC1)C1=NN(c2ccc(Cl)cc2)C(c2ccccc2)C1` (stereo not shown) [Piperidine-1-sulfonic acid [1-(4-chloro-phenyl)-5-phenyl-4,5-dihydro-1H-pyrazol-3-yl]-methylamino-methyleneamide]: in assay [1], the “% Inhibition 0-30 (insulin secretion)” value is on record as 84% and the “% Inhibition 30-60 (insulin secretion)” value was 47%. Further, the negative logarithm of the Ki (pKi) at rat SUR2A is 4.5. Besides, the Ki at hamster SUR1 is 0.794 µM.
Consider `CN(C)CCNC(=NS(=O)(=O)N1CCCCC1)N1CC(c2ccccc2)C(c2ccc(Cl)cc2)=N1` (stereo not shown) [Piperidine-1-sulfonic acid [3-(4-chloro-phenyl)-4-phenyl-4,5-dihydro-pyrazol-1-yl]-(2-dimethylamino-ethylamino)-methyleneamide], for which, in assay [1], the “% Inhibition 0-30 (insulin secretion)” value worked out at 71% and the “% Inhibition 30-60 (insulin secretion)” value is given as 64%. This compound also came in with a pKi on rat SUR2A of 4.0. Besides, the Ki at hamster SUR1 was 100 µM.
For `Cc1c(C(=O)c2cccc3ccccc23)c2cccc3c2n1[C@H](CN1CCOCC1)CO3` [R(+)-WIN55212-2, (2-Methyl-3-morpholin-4-ylmethyl-3,4-dihydro-5-oxa-2a-azacenaphthylen-1-yl)-naphthalen-1-yl-methanone, reference compound], in assay [1], the “% Inhibition 0-30 (insulin secretion)” value is on record as 80% and the “% Inhibition 30-60 (insulin secretion)” value is reported as 35%. For the same compound, the Ki on hamster SUR1 was 39.8 µM.
On the same counts, the results for `Cc1c(C(=O)NN2CCCCC2)nn(-c2ccc(Cl)cc2Cl)c1-c1ccc(Cl)cc1` [Rimonabant, 5-(4-Chloro-phenyl)-1-(2,4-dichloro-phenyl)-4-methyl-1H-pyrazole-3-carboxylic acid piperidin-1-ylamide, reference compound] are 22%, 18% and 5.01 µM.
